Test results published in article PMC10999085, “Synthesis, anticancer evaluation, molecular docking and ADME study of novel pyrido[4ʹ,3ʹ:3,4]pyrazolo[1,5-a]pyrimidines as potential tropomyosin receptor kinase A (TrKA) inhibitors” (BMC Chemistry, 2024).
Values after ≈ are worked out from the molar mass of the structure shown.

What was measured:
MCF7 cell line = test: MTT assay, MCF7 cell line; type: cell-based, human; conditions: 24 hr treatment, in % (unit assumed); for Cytotoxicity at 5 µg/l: MCF7, 5 µg/l; for Cytotoxicity at 10 µg/l: MCF7, 10 µg/l; for Cytotoxicity at 20 µg/l: MCF7, 20 µg/l
Protocol: (§1) Determination of the inhibitory effects of compounds on cell growth was performed through the MTT assay. This colorimetric assay is based on the conversion of the yellow tetrazolium bromide (MTT) to a purple formazan derivative by mitochondrial succinate dehydrogenase in viable cells. The protocol was discussed in details in Additional file 1.
(§2) Compounds 1, 4a,b, 7a–c, 7k, l, 9a–c, 14a, 15b, 16a–c were selected to be investigated against three human cancer cell lines MCF7, HepG2 and HCT116 cell lines using MTT assay using doxorubicin as the standard drug. Each point is the mean ± SD (standard deviation) of three independent experiments performed in triplicate, using the prism software program (integrated Graphpad software, version 3).
(§3) Cell lines were used to measure the cell growth effects of the compounds using the MTT assay. This colorimetric assay is depend on the conversion of the yellow tetrazolium bromide (MTT) to a purple formazan derivative by mitochondrial succinate dehydrogenase in living cells. Cell lines were cultured in RPMI-1640 medium supplemented with 10% fetal bovine serum. The antibiotics added were 100 units/ml penicillin and 100 µg/ml streptomycin at 37 °C in a 5% CO2 incubator. Cell lines were seeded in a 96-well plates at a density of 1.0x10^4 cells/well and cultured at 37 °C for 48 h under 5% CO2. After incubation, the cells were treated with different concentrations of compounds and incubated for 24 hr. After 24 hr of drug treatment, 20 µl of MTT solution at 5 mg/ml was added to each well and incubated for 4 hr. 100 µl of dimethyl sulfoxide (DMSO) was added into each well to dissolve the purple formazan formed. The colorimetric assay was measured and recorded at absorbance of 570 nm using a plate reader (EXL 800, USA). Relative cell viability (%) was calculated as (A570 of treated sample/A570 of untreated sample) x 100 [36, 37].

HepG2 cell line = test: MTT assay, HepG2 cell line; type: cell-based, human; conditions: MTT, 24 hr treatment, in % (unit assumed); for Cytotoxicity at 5 µg/l: HepG2, 5 µg/l; for Cytotoxicity at 10 µg/l: HepG2, 10 µg/l; for Cytotoxicity at 20 µg/l: HepG2, 20 µg/l
Protocol: as §1, §2, §3

HCT-116 cell line = test: MTT assay, HCT-116 cell line; type: cell-based, human; conditions: for Cytotoxicity at 5 µg/l: HCT116, 5 µg/l; for Cytotoxicity at 5 µg/l / Cytotoxicity at 10 µg/l / Cytotoxicity at 20 µg/l: MTT, 24 hr treatment, in % (unit assumed); for Cytotoxicity at 10 µg/l: HCT116, 10 µg/l; for Cytotoxicity at 20 µg/l: HCT116, 20 µg/l
Protocol: as §1, §2, §3

| Compound | Cytotoxicity at 5 µg/l (MCF7 cell line) | Cytotoxicity at 10 µg/l (MCF7 cell line) | Cytotoxicity at 20 µg/l (MCF7 cell line) | Cytotoxicity at 5 µg/l (HepG2 cell line) | Cytotoxicity at 10 µg/l (HepG2 cell line) | Cytotoxicity at 20 µg/l (HepG2 cell line) | melting point | Cytotoxicity at 5 µg/l (HCT-116 cell line) | Cytotoxicity at 10 µg/l (HCT-116 cell line) | Cytotoxicity at 20 µg/l (HCT-116 cell line) | IC50 (HCT-116 cell line; Homo sapiens, HCT-116, HCT116, MTT, read-out: IC50 (drug concentration that inhibited 50% of cell proliferation)) |
| --- | --- | --- | --- | --- | --- | --- | --- | --- | --- | --- | --- |
| Cc1cc(C)n2nc3c(c2n1)C(=O)NC(=O)C3 [Compound 4a, 2,4-Dimethylpyrido[4ʹ,3ʹ:3,4]pyrazolo[1,5-a]pyrimidine-8,10(7H,9H)-diones] | 35.61 | 74.99 | 84.71 | 15.91 | 60.95 | 82.16 | 330 °C | 56.23 | 71.78 | 84.77 |  |
| O=C1Cc2nn3c(-c4ccccc4)cc(-c4ccccc4)nc3c2C(=O)N1 [Compound 4b, 2,4-Diphenylpyrido[4ʹ,3ʹ:3,4]pyrazolo[1,5-a]pyrimidine-8,10(7H,9H)-dione] | 22.19 | 55.85 | 70.37 | 38.14 | 43.81 | 76.43 | 300 °C | 7.31 | 21.33 | 66.23 |  |
| Cc1cc(C)n2nc3c(c2n1)C(=O)NC(=O)C3=Cc1ccccc1 [Compound 7a, 7-Benzylidene-2,4-dimethylpyrido[4ʹ,3ʹ:3,4]pyrazolo[1,5-a]pyrimidine-8,10(7H,9H)-dione] | 30.13 | 45.66 | 66.12 | 38.17 | 42.56 | 76.04 | 240 °C | 50.82 | 84.52 | 91.78 |  |
| Cc1cc(C)n2nc3c(c2n1)C(=O)NC(=O)C3=Cc1ccc(Cl)cc1 [Compound 7c] | 40.12 | 69.00 | 92.48 | 35.08 | 41.65 | 67.89 | 260 °C | 50.56 | 68.21 | 68.85 | 4.07 ng/mL (≈ 0.0115 µM) |
| O=C1NC(=O)c2c(nn3c(-c4ccccc4)cc(-c4ccccc4)nc23)C1=Cc1ccccc1 [Compound 7k, 7-Benzylidene-2,4-diphenylpyrido[4ʹ,3ʹ:3,4]pyrazolo[1,5-a]pyrimidine-8,10(7H,9H)-dione] | 36.19 | 55.16 | 71.12 | 41.84 | 88.59 | 90.19 | 275 °C | 39.48 | 46.55 | 62.92 |  |
| COc1ccc(C=C2C(=O)NC(=O)c3c2nn2c(-c4ccccc4)cc(-c4ccccc4)nc32)cc1 [Compound 7l] | 40.19 | 52.28 | 97.26 | 40.25 | 71.84 | 96.62 | 315 °C | 57.14 | 61.58 | 91.59 |  |
| Cc1cc(C)n2nc3c(c2n1)C(=O)NC(=O)C3=NNc1ccccc1 [Compound 9a, 2,4-Dimethyl-7-(2-phenylhydrazono)pyrido[4ʹ,3ʹ:3,4]pyrazolo[1,5-a]pyrimidine-8,10(7H,9H)-dione] | 36.10 | 49.11 | 75.34 | 13.11 | 49.16 | 79.17 | 300 °C | 34.38 | 55.47 | 65.98 |  |
| Cc1ccc(NN=C2C(=O)NC(=O)c3c2nn2c(C)cc(C)nc32)cc1 [Compound 9b, 2,4-Dimethyl-7-(2-(p-tolyl)hydrazono)pyrido[4ʹ,3ʹ:3,4]pyrazolo[1,5-a]pyrimidine-8,10(7H,9H)-dione] | 33.82 | 51.19 | 72.13 | 8.46 | 33.81 | 73.11 | 285 °C | 22.09 | 40.50 | 59.80 |  |
| Cc1cc(O)n2nc3c(c2n1)C(=O)NC(=O)C3 [Compound 14a, 4-Hydroxy-2-methylpyrido[4ʹ,3ʹ:3,4]pyrazolo[1,5-a]pyrimidine-8,10(7H,9H)-dione] | 25.14 | 48.62 | 77.19 | 11.39 | 40.75 | 83.75 | > 360 °C | 28.84 | 55.79 | 58.72 |  |
| Cc1ccc(NN=C2C(=O)NC(=O)c3c2nn2c(O)cc(C)nc32)cc1 [Compound 16b, 4-Hydroxy-2-methyl-7-(2-(p-tolyl)hydrazono)pyrido[4ʹ,3ʹ:3,4]pyrazolo[1,5-a]pyrimidine-8,10(7H,9H)-dione] | 54.13 | 55.27 | 80.56 | 18.01 | 42.54 | 50.18 | 330 °C | 23.18 | 52.73 | 85.28 |  |
| O=C1NC(=O)c2c(nn3c(O)cc(-c4ccccc4)nc23)C1=NNc1ccccc1 [Compound 16e, 4-Hydroxy-2-phenyl-7-(2-phenylhydrazono)pyrido[4ʹ,3ʹ:3,4]pyrazolo[1,5-a]pyrimidine-8,10(7H,9H)-dione] |  |  |  |  |  |  | 300 °C |  |  |  |  |
| Cc1ccc(NN=C2C(=O)NC(=O)c3c2nn2c(O)cc(-c4ccccc4)nc32)cc1 [Compound 16f, 4-Hydroxy-2-phenyl-7-(2-(p-tolyl)hydrazono)pyrido[4ʹ,3ʹ:3,4]pyrazolo[1,5-a]pyrimidine-8,10(7H,9H)-dione] |  |  |  |  |  |  | 320 °C |  |  |  |  |
| COc1ccc(NN=C2C(=O)NC(=O)c3c2nn2c(O)cc(-c4ccccc4)nc32)cc1 [Compound 16g, 4-Hydroxy-7-(2-(4-methoxyphenyl)hydrazono)-2-phenylpyrido[4ʹ,3ʹ:3,4]pyrazolo[1,5-a]pyrimidine-8,10(7H,9H)-dione] |  |  |  |  |  |  | 323 °C |  |  |  |  |
| O=C1NC(=O)c2c(nn3c(O)cc(-c4ccccc4)nc23)C1=NNc1ccc(Cl)cc1 [Compound 16h, 7-(2-(4-Chlorophenyl)hydrazono)-4-hydroxy-2-phenylpyrido[4ʹ,3ʹ:3,4]pyrazolo[1,5-a]pyrimidine-8,10(7H,9H)-dione] |  |  |  |  |  |  | 330 °C |  |  |  |  |
